# Results from US20240358731A1, “SUMO PATHWAY AS AN OXYGEN SENSOR RELEVANT TO THE PATHOPHYSIOLOGY OF PULMONARY ARTERY HYPERTENSION AND CARDIAC ARRHYTHMIA” (Northeastern University, priority 2023, published 2024).
# Where a chain is given by its changes, count along the chain named.
# Key:
# [1] = molecular target: T1, Kir2.1-mediated IK1 current (Rattus norvegicus, UniProt Q64273); test: Whole-cell patch-clamp of IK1 in rat ventricular cardiomyocytes under acute hypoxia; format: cell-based
# T1 construct: endogenous in cells; host or cells: rat ventricular cardiomyocytes (RVCMs)
# T1 sequence (Q64273 1-427): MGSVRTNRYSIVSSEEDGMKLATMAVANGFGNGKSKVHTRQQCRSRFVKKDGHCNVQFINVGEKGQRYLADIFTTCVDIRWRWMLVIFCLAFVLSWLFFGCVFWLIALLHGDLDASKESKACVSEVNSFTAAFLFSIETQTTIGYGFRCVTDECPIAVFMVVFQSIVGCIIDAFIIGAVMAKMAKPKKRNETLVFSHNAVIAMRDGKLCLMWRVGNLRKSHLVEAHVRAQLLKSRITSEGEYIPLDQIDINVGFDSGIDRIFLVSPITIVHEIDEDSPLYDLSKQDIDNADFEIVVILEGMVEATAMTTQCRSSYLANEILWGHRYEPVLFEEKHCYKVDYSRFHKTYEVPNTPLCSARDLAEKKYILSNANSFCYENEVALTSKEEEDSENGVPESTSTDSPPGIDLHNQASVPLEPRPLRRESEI
# Experimental: IK1 in rat ventricular cardiomyocytes studied by whole-cell patch-clamp. Hypoxia was a drop in O2 from ambient levels to 2%, measured at the cell. The time-course of hypoxic-inhibition was studied by recording the magnitude of IK1 every second. Cells were studied with the following pipette solutions: control, SUMO1 (1 μM) or SENP1 (2 μM). IK1 was blocked by the addition of 3 mM Ba^2+. […] Left, representative current sweeps; right, a representative time course showing the kinetics of hypoxic inhibition in cardiomyocytes studied with control pipette solution. The inhibition is precluded by including SENP1 (2 μM, magenta) in the recording pipette. The reverse ramp recording protocol is inset. […] SENP1 augments IK1 and protects the current from hypoxia. Data are from 8-10 RVCMs per group, **** P<0.0001, paired, two-tailed Student's […]. […] Representative data are shown with DAPI labeled nuclei and PLA interactions. Summary data are obtained from multiple experiments each with multiple fields of view containing 20-30 nuclei. The scale bar is 10 μm.
# (§1) To knockdown Kir2.1 expression, RVCMs were transduced with lentiviral particles carrying cGFP and shRNA targeting KCNJ2-mRNA for the channel. Kir2.1 knockdown cells (Kir2.1kd-CMs) were identified by expression of cGFP. Cells were studied with control pipette solution, or with pipette solutions containing purified SUMO1 (1 μM) or SENP1 (2 μM). Where indicated, the control pipette solution contained diC8 PIP2. Paired patch-clamp data were analyzed by Students t-test; ***, P<0.01. […] Kir2.1kd-CMs are identified by expression of GFP (inset, scale bar=10 μm). […] The arrow indicates the change in current-magnitude between exposure to ambient O2 and 2% O2 in the same cell. Right, Concentration-response curve showing that including diC8-PIP2 in the pipette opposes hypoxic-inhibition of IK1 in control RVCMs and RVCMs expressing the scrambled shRNA. The hypoxic-response is diminished in Kir2.1kd-CMs. Data are mean±s.d. for 7-8 cells per condition. […] Current inhibition is diminished when SENP1 is included in the recording pipette and is not observed when SUMO-insensitive Kir2.1-K49Q channels are studied. Data are mean±s.d. for 6 cells per condition.
# Hypoxic-inhibition of Kir2.1 in cardiomyocytes via SUMOylation. We studied the effects of acute hypoxia on IK1 in rat ventricular cardiomyocytes (RVCMs) by whole cell patch-clamp recording. […] Both the hypoxia-sensitive and insensitive components of the current were blocked by Ba^2+ (3 mM), consistent with the known role of Kir2 channels in mediating IK1 (FIG. 1a). To determine if SUMOylation mediates the hypoxic inhibition of IK1 we introduced purified SENP1 (2 μM) to the cytosol via the recording pipette. […] Both the SUMO1 and hypoxia-mediated inhibition of IK1 remained stable throughout the remainder of the experiment (up to 10 mins). […] Next, we visualized and quantified the interactions between native Kir2.1 and SUMO1 in RVCMs using the proximity-ligation association (PLA) assay with antibodies we validated in heterologous cells by Western blot. […] The validated Kir2 antibodies were paired with SUMO1 antibodies that we have tested and utilized before. Under control conditions, interactions were observed between Kir2.1 and SUMO1, but not between Kir2.2 or Kir2.3 and SUMO1. […] Although cardiomyocytes are typically cultured at 21% O2, the O2-level in the myocardium is estimated to be in the range of 5-10% O2, under physiological conditions.
# Hypoxic-inhibition of IK1/Kir2.1 is reduced by diC8-PIP2 in a concentration-dependent manner. We have shown that adding the exogenous, soluble PIP2 analog diC8-PIP2 into the patch-pipette opposes hypoxic-inhibition of IK1 (FIG. 4). […] As before, the effects of hypoxia were ameliorated by SENP1 (2 μM) and were not observed in the SUMO and hypoxia insensitive Kir2.1-K49Q channels (FIG. 4D).
# [2] = molecular target: Ubc9 (Homo sapiens, UniProt P63279); details: cited from earlier work
# [3] = molecular target: T2, SUMO activating enzyme (SAE) (Homo sapiens, UniProt Q9UBE0+Q9UBT2); details: cited from earlier work
# T2 sequence (Q9UBE0 1-346): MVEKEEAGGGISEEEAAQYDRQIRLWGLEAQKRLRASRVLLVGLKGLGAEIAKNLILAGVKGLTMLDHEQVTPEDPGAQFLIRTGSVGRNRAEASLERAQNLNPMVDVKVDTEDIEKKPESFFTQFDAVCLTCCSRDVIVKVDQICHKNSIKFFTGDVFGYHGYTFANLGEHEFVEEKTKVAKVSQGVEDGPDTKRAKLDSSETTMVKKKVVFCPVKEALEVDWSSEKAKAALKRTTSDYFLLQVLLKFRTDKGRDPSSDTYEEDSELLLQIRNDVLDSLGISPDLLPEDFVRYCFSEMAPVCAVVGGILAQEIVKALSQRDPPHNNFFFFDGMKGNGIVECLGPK
# T2 sequence (Q9UBT2 1-640): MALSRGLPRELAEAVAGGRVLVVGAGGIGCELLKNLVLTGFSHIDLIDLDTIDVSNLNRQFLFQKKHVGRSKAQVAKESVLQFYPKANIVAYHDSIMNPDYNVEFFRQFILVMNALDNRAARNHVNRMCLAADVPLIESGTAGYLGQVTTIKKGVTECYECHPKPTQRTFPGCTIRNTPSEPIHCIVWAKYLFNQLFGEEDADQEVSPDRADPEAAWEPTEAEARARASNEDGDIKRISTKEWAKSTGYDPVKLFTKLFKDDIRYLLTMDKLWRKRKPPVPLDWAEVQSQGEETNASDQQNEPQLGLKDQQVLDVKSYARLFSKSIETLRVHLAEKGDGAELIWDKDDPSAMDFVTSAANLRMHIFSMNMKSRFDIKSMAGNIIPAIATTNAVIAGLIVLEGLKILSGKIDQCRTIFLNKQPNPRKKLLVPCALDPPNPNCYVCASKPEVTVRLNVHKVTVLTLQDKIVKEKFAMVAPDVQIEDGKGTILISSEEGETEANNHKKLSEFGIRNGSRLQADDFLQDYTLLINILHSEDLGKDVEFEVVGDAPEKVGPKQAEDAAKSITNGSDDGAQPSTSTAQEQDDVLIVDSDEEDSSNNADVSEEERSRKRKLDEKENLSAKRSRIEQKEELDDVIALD
# [4] = system: E1 and E2; details: cited from earlier work
# [5] = molecular target: T3, Kir2.1 channels (Homo sapiens, UniProt P63252); test: Whole-cell patch-clamp of heterologous Kir2.1 channels in HEK293T cells under hypoxia; format: cell-based; details: agent in recording pipette (SENP1 2 μM)
# T3 construct: expressed in transfected cells; host or cells: HEK293T
# T3 sequence (P63252 1-427): T1 sequence (Q64273 1-427) with S119G, C336Y, E388D, S402T, G405D
# Experimental: as §1
# Hypoxic-inhibition of IK1/Kir2.1 is reduced by diC8-PIP2 in a concentration-dependent manner. We have shown that adding the exogenous, soluble PIP2 analog diC8-PIP2 into the patch-pipette opposes hypoxic-inhibition of IK1 (FIG. 4). […]
# [6] = system: SUMOylation; details: cited from earlier work
# [7] = molecular target: T4, Kir2.4 (Homo sapiens, UniProt Q9UNX9); test: Whole-cell patch-clamp of Kir2.4 in HEK293 cells with SUMO1 or SENP1 in the recording pipette; format: cell-based; set-up: expressed in transfected cells; details: 1 nM in pipette; 140 mM bath K+; within one-minute of breakthrough
# T4 sequence (Q9UNX9 1-436): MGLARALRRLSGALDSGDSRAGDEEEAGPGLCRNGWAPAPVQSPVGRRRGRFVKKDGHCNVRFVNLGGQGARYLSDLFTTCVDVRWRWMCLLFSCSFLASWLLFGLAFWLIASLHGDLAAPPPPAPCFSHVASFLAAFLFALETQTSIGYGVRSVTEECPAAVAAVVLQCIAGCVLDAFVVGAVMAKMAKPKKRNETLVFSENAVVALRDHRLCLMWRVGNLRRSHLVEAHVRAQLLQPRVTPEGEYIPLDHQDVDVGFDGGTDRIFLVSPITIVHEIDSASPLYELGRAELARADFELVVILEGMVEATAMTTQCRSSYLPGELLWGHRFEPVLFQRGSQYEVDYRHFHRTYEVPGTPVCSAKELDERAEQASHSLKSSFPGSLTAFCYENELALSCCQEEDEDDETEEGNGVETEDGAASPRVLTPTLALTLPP
# Experimental: Currents were measured at −80 mV in 140 mM external K+.
# Similarly, currents were no longer enhanced by SENP1.
# SUMOylation regulates Kir2.4 channels in mammalian cells. Next, we tested if SUMO could regulate Kir2.4 channels in mammalian cells. Kir2.4 channels were transiently expressed in HEK293 cells and studied in whole-cell mode with 140 mM bath [K]^+, using a ramp protocol from −80 to +80 mV. Purified SUMO1 or SENP1 peptide were introduced via the recording pipette. At 1 nM, SUMO1, but not heat-denatured SUMO1, inhibited Kir2.4 currents by ˜40 and 60%, respectively, within one-minute of breakthrough. In contrast, 1 nM SENP1 increased the current by ˜50% (FIG. 7).
# The PIP2-dependence of SUMO-regulation. Using the 5-ptaseOCRL system, we depleted PIP2 in HEK293 cells expressing Kir2.4 and studied currents with 1 nM SUMO1, or SENP1 in the recording pipette. When currents were recorded after 5-min activation of the optogenetic probe, 5-ptaseOCRL, the inhibitory effect of 1 nM SUMO1 on Kir2.4 was reduced from ˜40% to ˜7% (FIG. 9). Current augmentation observed with SENP1 in the pipette was reduced from […] to ˜6%. These preliminary data support the conclusion that SUMO-regulation of Kir2.4 channels is PIP2-dependent.
# Ubc9, sequence (P63279 whole entry): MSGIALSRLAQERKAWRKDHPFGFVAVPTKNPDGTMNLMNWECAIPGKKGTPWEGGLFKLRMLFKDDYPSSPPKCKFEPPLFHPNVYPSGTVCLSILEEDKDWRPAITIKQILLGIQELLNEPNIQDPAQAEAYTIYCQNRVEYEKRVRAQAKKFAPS
molecule,measurement,setting,value
[Ba+2] [Ba^2+],block of IK1 (hypoxia-sensitive and insensitive components),[1]; 3 mM,blocked
O=c1cc(-c2ccc(O)c(O)c2O)oc2ccccc12 [Compound 2-D08],Ubc9 (SUMO-E2) inhibition,[2],inhibits Ubc9 by preventing the transfer of SUMO from Ubc9 to the substrate
c1coc(-c2cc(CNc3ncnc4sc5cnccc5c34)no2)c1 [Compound 22],formation of the E1-SUMO complex,[3],unable to block formation of the E1-SUMO complex
same,selectivity for the SUMOylation pathway,[2],modest selectivity for the SUMOylation pathway
Cc1cc(NC(=O)c2ccc(S(=O)(=O)N3CCC(C)CC3)cc2)ccc1NC(=O)Cn1cccn1 [Compound 26],formation of the SUMO-E2 complex,[2],inhibited formation of the SUMO-E2 complex
C[C@@H](C(=O)Nc1ccc(NC(=O)c2ccc(C(=O)c3ccccc3)cc2)cc1)n1cccn1 [Compound 27],formation of the SUMO-E2 complex,[2],inhibited formation of the SUMO-E2 complex
COC1=C(N)C(=O)c2[nH]cc(CO)c2C1=N [Compound 61],ROS generation and E1/E2 crosslinking,[4],generated ROS and subsequent E1 and E2 crosslinking
CCCCCCCC(=O)OC[C@H](COP(=O)(O)O[C@@H]1[C@H](O)[C@H](O)[C@@H](OP(=O)(O)O)[C@H](OP(=O)(O)O)[C@H]1O)OC(=O)CCCCCCC [diC8-PIP2],effect on hypoxic inhibition of Kir2.1 channels,[5],concentration-dependent reduction in hypoxic inhibition
same,hypoxic inhibition of IK1,"[1]; 100 μM diC8-PIP2 in pipette, wild-type RVCMs, ~40% without",~15%
same,effect on hypoxic inhibition of IK1,"[1]; ambient O2 to 2% O2, agent in pipette (SENP1 2 μM, SUMO1 1 μM, diC8-PIP2) or pretreatment (TAK981)",diminished the hypoxic-inhibition of IK1 in a concentration-dependent manner
CSC1=C(N)C(=O)c2[nH]cc(CO)c2C1=N [macrophilone A],SUMOylation inhibition,[6],demonstrated SUMOylation inhibitory activity through formation of ROS
same,ROS generation and E1/E2 crosslinking,[4],generated ROS and subsequent E1 and E2 crosslinking
CO/C(=C/C(=O)O)[C@H]1c2cc3ccc(-c4ccc5cc6c(c(O)c5c4O)C(=O)C[C@@](C)(O)[C@H]6/C(=C\C(=O)O)OC)c(O)c3c(O)c2C(=O)C[C@@]1(C)O [spectomycin B1],Ubc9 (SUMO-E2) inhibition,[2],inhibitors of SUMO-E2
chaetochromin A,Ubc9 (SUMO-E2) inhibition,[2],inhibitors of SUMO-E2
"heat-denatured SUMO1: heat-denatured SUMO1 peptide, control",inhibition of Kir2.4 currents,[7],not
viomellein,Ubc9 (SUMO-E2) inhibition,[2],inhibitors of SUMO-E2
